The results in this text go back to PMC6486608, “A cell-penetrating peptide blocks Toll-like receptor-mediated downstream signaling and ameliorates autoimmune and inflammatory diseases in mice” (Experimental & Molecular Medicine, 2019).

Ends that are not written are not given here.

The subject of assay [1] is IL-1R (HEK-Blue IL-1R cells). The experiment in a line: SEAP activity (NF-κB), HEK-Blue IL-1R, IL-1β. In kind it is cell-based. Conditions: peptide 1 h before IL-1β (300 pg/ml), 24 h; n ≥ 3. Here is the method:
(§1) HEK-Blue-hTLR4 cells were seeded at a density of 2 × 10^5 cells/well and grown overnight in 24-well plates (BD Biosciences). The next day, the supernatant was removed, and the medium was replaced with fresh medium. Aliquots of supernatants (200 µl) from the treated cells were transferred to microcentrifuge tubes and heated for 10 min at 65 °C on a heating block (FINEPCR Co., Seoul, Korea). The supernatants were then transferred into new 96-well plates (BD Biosciences), and SEAP production was quantified using the HEK-Blue detection kit (InvivoGen). HEK-Blue IL-1R cells were seeded at a density of 2 × 10^5 cells/well and grown in 24-well plates (BD Biosciences) overnight, and SEAP production was measured by means of QUANTI-Blue (InvivoGen). Absorbance was measured on a microplate reader (spectrophotometry system; Molecular Devices Inc., Silicon Valley, CA, USA) or a Cytation 5 Cell Imaging Multi-Mode Reader (Bio-Tek Instruments, Winooski, VT, USA) at 620 nm.
The TLR4-mediated response to LPS leads to a direct interaction between the TIR domains of TIRAP and MyD88, resulting in the subsequent activation of the MyD88-dependent downstream cascade. […] The inhibitory effects of the peptides (TIP1 and TIP2) in the absence of CPP were evaluated by measuring the SEAP activity in HEK-Blue hTLR4 cells. […]

Assay [2] relates to TLR4 (HEK-Blue hTLR4 cells). The experiment in a line: SEAP activity (NF-κB), HEK-Blue hTLR4, LPS. In kind it is cell-based. Particulars: n ≥ 3; for LPS-induced NF-κB activity (SEAP), peptides in the absence of CPP: not conjugated with CPP. Here is the method:
as §1
The TLR4-mediated response to LPS leads to a direct interaction between the TIR domains of TIRAP and MyD88, resulting in the subsequent activation of the MyD88-dependent downstream cascade. On the other hand, LPS-induced activation of TLR4 can cause the interaction between the TIR domains of TRAM and TRIF, which thereafter initiates MyD88-independent downstream signaling. Multiple peptides were designed from the TIR domain of TIRAP to possibly target the TIR domain of TLR4. […] The inhibitory effects of the peptides (TIP1 and TIP2) in the absence of CPP were evaluated by measuring the SEAP activity in HEK-Blue hTLR4 cells. […] To evaluate the specific binding of TIP1 to TLRs, we measured the NF-κB activity and protein expression of NF-κB and MAPKs by the SEAP activity assay and western blotting in HEK-Blue IL-1R cells. […]

Assay [3] has as its system TLR signaling (RAW 264.7 cells). The assay is described as follows: TNF-α ELISA, RAW 264.7, peptides not conjugated with CPP. It is filed as cell-based, mouse. Particulars: TIP1 without CPP 12.5, 25, and 50 µM (Fig. 2l); Poly(I:C) 24 h (Supplementary Fig. 1c). As to the method: RAW 264.7, THP1, and mBMDM cells were seeded at a density of 2 × 10^5 cells/well in 96-well plates (BD Biosciences) or at 5 × 10^5 cells/well in 24-well plates (BD Biosciences) and were grown overnight. After 24 h of treatment, IFN-β secretion was measured by means of the LEGEND MAX Mouse IFN-β precoated ELISA Kit (BioLegend), IL-6 secretion was assessed by a Mouse IL-6 ELISA MAX Deluxe (BioLegend) or Mouse IL-6 Platinum ELISA (eBioscience), TNF-α production was assessed using the Mouse TNF alpha ELISA Ready-SET-Go! kit (eBioscience), and the IL-1β cytokine level was measured with the Mouse or Human IL-1β ELISA Ready-SET-Go! kit (eBioscience). hBMNCs were seeded at a density of 4 × 10^4/well in 96-well plates (BD Biosciences) and then grown overnight. After 24 h of treatment, the secretion levels of IL-6 and TNF-α were assessed using Human IL-6 ELISA MAX Deluxe (BioLegend) and Human TNF alpha ELISA MAX Deluxe (BioLegend), respectively. The plates were then analyzed on a microplate spectrophotometer system (Molecular Devices) at the appropriate wavelength.
Fig. 2 Inhibitory effects of TIP1 on TLR signaling pathways. a Cell viability was measured by the MTT assay upon the treatment of RAW 264.7 cells with various concentrations of TIP1 (12.5, 25, or 50 µM) for 24 h. […] The secretion of IFN-β was measured by an ELISA. q hPBMCs were treated with TIP1 in the presence or absence of LPS. […]
(An ELISA detects its analyte on a solid surface through an enzyme-linked reagent.)

The target of assay [4] is T1, TLR4 TIR domain BB loop peptide (Homo sapiens).
T1 chain: RDFIPGVAIAA
The assay is described as follows: SPR. A general note: Surface plasmon resonance follows binding to a sensor surface in real time, without labels.

Turning to “TIPLLS [TIP2, TIPLLS from the TIR domain of TIRAP, conjugated in tandem to a cell-penetrating peptide (…) at N terminus]”, the “IL-1β-induced NF-κB activity (SEAP)” value in assay [1] is reported as “did not exert any significant inhibitory effects”. For the same molecule, the “LPS-induced SEAP activity (NF-κB)” value in assay [2] (CPP-conjugated peptide, 12.5 to 50 μM, peptide 1 h before LPS, 24 h) was “did not hinder LPS-induced NF-κB activity”.

On to “SHCRVLLI [TIP1 without CPP, TIP1 peptide not conjugated with CPP]”, for which, in assay [3], the “inhibitory effect on TNF-α secretion after removal of CPP” value was “loss of the inhibitory effect”. Further, in assay [2], the “LPS-induced NF-κB activity (SEAP), peptides in the absence of CPP” value was “neither peptide significantly inhibited NF-κB activity”.

For “TIPLLS [TIP2 without CPP, TIP2 peptide not conjugated with CPP]”, the “inhibitory effect on TNF-α secretion after removal of CPP” value in assay [3] is listed as “loss of the inhibitory effect”. In addition, the “LPS-induced NF-κB activity (SEAP), peptides in the absence of CPP” value in assay [2] is listed as “neither peptide significantly inhibited NF-κB activity”.

By Kd is commonly meant the constant that tells how readily two partners part at equilibrium. Turning to RQIKIWFQNRRMKWKKSHCRVLLI (also: biotinylated and immobilized) [TIP1 (TIRAP TIR-derived decoy peptide with N-terminal antennapedia CPP)], the Kd in assay [4] amounted to 40.2 µM.
